# Results taken from patent US20090004145A1, “COMPOSITIONS AND METHODS INVOLVING GENE THERAPY AND PROTEASOME MODULATION” (priority 2006, published 2009).
# Where a SMILES comes first, the peptide text is derived from it. The star is where a group is joined. Cbz = O=C(OCc1ccccc1)*
# Experiments:
# Type in all cases: cell-based, human
# [1] = system: total ubiquitinated proteins in 2008 cells; assay: Western blotting of total ubiquitinated proteins; conditions: 24 h
# Experimental: FIG. 9. CDDP-resistant tumor cells have more endogenous ubiquitinated proteins. CDDP-resistant (2008/C*13 R) and sensitive (2008) ovarian tumor cells were plated in six-well plates and were untreated or treated with MG132. Cells were harvested 24 h after treatment, total cell lysate prepared and subjected to western blotting. Membrane was probed with human anti-ubiquitinated antibody.
# CDDP-Resistant Tumor Cells Have More Endogenous Ubiquitinated Proteins. CDDP-resistant (2008/C*13 R) and sensitive (2008) ovarian tumor cells were plated in six-well plates and were untreated or treated with MG132. Cells were harvested 24 h after treatment, total cell lysate prepared and subjected to western blotting. Membrane was probed with human anti-ubiquitinated antibody. […] (FIG. 9)
# [2] = system: proteasome activity in 2008 cells; assay: Proteasome activity assay (commercially available kit) on cell lysates; conditions: 48 h
# Experimental: (§1) FIG. 11. Inhibition of the proteasomal activity by MG132 results in increased ubiquitinated MDA-7 protein expression in CDDP-sensitive tumor cells but not in CDDP-resistant tumor cells. FIG. 11A, CDDP-resistant (2008/C*13 R) and sensitive (2008) ovarian tumor cells were plated in six-well plates and were treated with PBS, MG132, Ad-mda7, or Ad-mda7 plus MG132. At 48 h after treatment cells were harvested, lysates and supernatants prepared and subjected to MDA-7 and total ubiquitinated protein detection by western blotting and proteasome activity assay using commercially available kit. […] However, the MDA-7 protein was increased in 2008 cells when treated with MG132 plus Ad-mda7. […] FIG. 11B, CDDP-resistant (2008/C*13 R) and sensitive (2008) ovarian tumor cells were plated in six-well plates and were treated with PBS, MG132, Ad-p53, or Ad-p53 plus MG132. At 48 h after treatment cells were harvested, lysates and supernatants prepared and subjected to p53 protein detection by western blotting and proteasome activity using commercially available kit. […] However, the p53 protein was increased in 2008 cells when treated with MG132 plus Ad-p53.
# FIG. 20. SiRNA-mediated inhibition of Beta-5 subunit expression of the 20S proteasome in CDDP-sensitive tumor cells abrogates proteasome activity. CDDP-sensitive (2008) ovarian tumor cells were plated in six-well plates. […]
# [3] = system: MDA-7 protein in 2008 cells; assay: Western blotting of MDA-7 protein expression; conditions: 48 h, vs Ad-mda7 alone
# Experimental: as §1
# FIG. 18. […] CDDP-sensitive (2008) ovarian tumor cells were plated in six-well plates. […]
# FIG. 21. […] MDA-7 protein was detected in cells that were treated with Ad-mda7. […]
smiles,measurement,setting,value
CC(C)C[C@@H](C=O)NC(=O)[C@H](CC(C)C)NC(=O)[C@H](CC(C)C)NC(=O)OCc1ccccc1 [MG132] (Cbz-Leu-Leu-Leu-aldehyde),total ubiquitinated protein levels,[1],greatly increased
same,inhibition of proteasome activity,[2]; FIG. 11A (Ad-mda7 experiment),60-65%
same,inhibition of proteasome activity,[2]; FIG. 11B (Ad-p53 experiment),60-65%
same,MDA-7 protein expression with proteasome inhibitor,[3],significantly increased
